# Measured values taken from the kinase profiling compilation of Christmann-Franck et al. (2016).
# Legend:
# Test in all cases: radiometric filter-binding kinase assay, Kinase HotSpot
# Conditions in all cases: compound 0.5 µM; ATP 10 µM
# GSK3B (human) = GSK3B (human) (UniProt P49841)
# PAK1 (human) = PAK1 (human) (UniProt Q13153)
# PAK2 (human) = PAK2 (human) (UniProt Q13177)
# GRK5 (human) = GRK5 (human) (UniProt P34947)
# EPHA6 (human) = EPHA6 (human) (UniProt Q9UF33)
# MAP2K1 (human) = MAP2K1 (human) (UniProt Q02750)
# CDC42BPB (human) = CDC42BPB (human) (UniProt Q9Y5S2)
# NTRK2 (human) = NTRK2 (human) (UniProt Q16620)
# PNCK (human) = PNCK (human) (UniProt Q6P2M8)
# FLT3 (human) = FLT3 (human) (UniProt P36888)
# SRPK1 (human) = SRPK1 (human) (UniProt Q96SB4)
# PRKG2 (human) = PRKG2 (human) (UniProt Q13237)
# YES1 (human) = YES1 (human) (UniProt P07947)
# PDPK1 (human) = PDPK1 (human) (UniProt O15530)
# Chain of PDPK1 (human) (O15530 whole entry, looked up): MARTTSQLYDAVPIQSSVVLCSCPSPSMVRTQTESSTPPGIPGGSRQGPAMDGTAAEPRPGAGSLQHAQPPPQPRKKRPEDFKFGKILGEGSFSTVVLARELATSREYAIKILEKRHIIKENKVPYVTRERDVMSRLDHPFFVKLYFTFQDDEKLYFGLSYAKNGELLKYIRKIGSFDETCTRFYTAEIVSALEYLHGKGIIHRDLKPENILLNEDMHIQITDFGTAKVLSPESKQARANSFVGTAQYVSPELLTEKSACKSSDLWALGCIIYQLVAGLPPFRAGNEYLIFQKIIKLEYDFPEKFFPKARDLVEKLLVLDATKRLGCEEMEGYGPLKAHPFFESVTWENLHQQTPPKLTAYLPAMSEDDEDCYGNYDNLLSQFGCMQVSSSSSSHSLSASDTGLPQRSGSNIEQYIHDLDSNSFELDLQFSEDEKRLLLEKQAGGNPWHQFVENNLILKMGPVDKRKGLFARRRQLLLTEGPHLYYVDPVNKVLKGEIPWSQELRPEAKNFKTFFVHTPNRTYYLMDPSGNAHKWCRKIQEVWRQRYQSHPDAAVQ
# TGFBR2 (human) = TGFBR2 (human) (UniProt P37173)
# CAMK1D (human) = CAMK1D (human) (UniProt Q8IU85)
# Chain of CAMK1D (human) (Q8IU85 whole entry, looked up): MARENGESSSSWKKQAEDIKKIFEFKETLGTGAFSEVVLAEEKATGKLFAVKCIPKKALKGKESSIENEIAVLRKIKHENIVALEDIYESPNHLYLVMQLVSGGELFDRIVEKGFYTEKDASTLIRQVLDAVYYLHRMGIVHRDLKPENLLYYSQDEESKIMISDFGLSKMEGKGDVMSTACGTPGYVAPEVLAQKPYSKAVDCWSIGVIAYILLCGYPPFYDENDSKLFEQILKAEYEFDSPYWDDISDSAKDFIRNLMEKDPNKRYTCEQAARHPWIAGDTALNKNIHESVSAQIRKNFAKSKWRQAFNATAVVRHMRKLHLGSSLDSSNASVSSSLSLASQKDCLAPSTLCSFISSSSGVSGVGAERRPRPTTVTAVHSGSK
# DAPK2 (human) = DAPK2 (human) (UniProt Q9UIK4)
# Chain of DAPK2 (human) (Q9UIK4 whole entry, looked up): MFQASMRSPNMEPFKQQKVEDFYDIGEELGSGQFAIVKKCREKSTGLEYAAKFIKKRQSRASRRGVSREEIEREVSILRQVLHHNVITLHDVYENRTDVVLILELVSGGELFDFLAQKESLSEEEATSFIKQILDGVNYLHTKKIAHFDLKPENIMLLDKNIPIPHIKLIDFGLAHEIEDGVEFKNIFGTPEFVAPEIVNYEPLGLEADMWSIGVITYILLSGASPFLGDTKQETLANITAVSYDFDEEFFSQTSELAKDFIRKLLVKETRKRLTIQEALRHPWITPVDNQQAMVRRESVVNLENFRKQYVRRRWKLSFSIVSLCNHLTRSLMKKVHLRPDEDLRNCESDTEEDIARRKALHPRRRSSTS
# JAK2 JH1 JH2 (human) = JAK2 JH1 JH2 (human) (UniProt O60674)
# DYRK1B (human) = DYRK1B (human) (UniProt Q9Y463)
# JAK3 JH1 JH2 (human) = JAK3 JH1 JH2 (human) (UniProt P52333)
# MERTK (human) = MERTK (human) (UniProt Q12866)
# PLK3 (human) = PLK3 (human) (UniProt Q9H4B4)
# CSNK1G3 (human) = CSNK1G3 (human) (UniProt Q9Y6M4)
# FGFR4 (human) = FGFR4 (human) (UniProt P22455)
# TAOK2 (human) = TAOK2 (human) (UniProt Q9UL54)
# MAPKAPK5 (human) = MAPKAPK5 (human) (UniProt Q8IW41)
# MARK1 (human) = MARK1 (human) (UniProt Q9P0L2)
# Chain of MARK1 (human) (Q9P0L2 whole entry, looked up): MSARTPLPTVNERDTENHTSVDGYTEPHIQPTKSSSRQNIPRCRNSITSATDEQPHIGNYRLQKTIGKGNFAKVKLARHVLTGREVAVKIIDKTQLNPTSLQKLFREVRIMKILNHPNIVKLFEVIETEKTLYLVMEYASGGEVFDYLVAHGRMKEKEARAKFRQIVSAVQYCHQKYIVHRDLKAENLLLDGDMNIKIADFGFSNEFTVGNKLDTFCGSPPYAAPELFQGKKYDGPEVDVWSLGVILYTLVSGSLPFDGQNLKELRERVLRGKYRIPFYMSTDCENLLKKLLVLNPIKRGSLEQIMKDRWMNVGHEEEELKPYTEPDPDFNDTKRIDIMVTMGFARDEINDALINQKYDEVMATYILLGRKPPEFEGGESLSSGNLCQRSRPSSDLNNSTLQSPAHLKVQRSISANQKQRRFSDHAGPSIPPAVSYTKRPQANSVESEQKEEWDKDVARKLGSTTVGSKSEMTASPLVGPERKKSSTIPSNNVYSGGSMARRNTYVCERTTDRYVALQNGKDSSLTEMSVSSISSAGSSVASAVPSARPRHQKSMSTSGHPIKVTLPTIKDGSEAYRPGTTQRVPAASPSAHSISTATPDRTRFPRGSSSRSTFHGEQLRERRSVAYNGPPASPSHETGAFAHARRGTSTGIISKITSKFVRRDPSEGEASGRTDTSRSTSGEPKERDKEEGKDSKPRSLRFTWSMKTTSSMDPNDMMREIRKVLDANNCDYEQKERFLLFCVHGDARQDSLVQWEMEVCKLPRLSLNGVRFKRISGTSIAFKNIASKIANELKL
# DYRK4 (human) = DYRK4 (human) (UniProt Q9NR20)
# ABL2 (human) = ABL2 (human) (UniProt P42684)
# Chain of ABL2 (human) (P42684 whole entry, looked up): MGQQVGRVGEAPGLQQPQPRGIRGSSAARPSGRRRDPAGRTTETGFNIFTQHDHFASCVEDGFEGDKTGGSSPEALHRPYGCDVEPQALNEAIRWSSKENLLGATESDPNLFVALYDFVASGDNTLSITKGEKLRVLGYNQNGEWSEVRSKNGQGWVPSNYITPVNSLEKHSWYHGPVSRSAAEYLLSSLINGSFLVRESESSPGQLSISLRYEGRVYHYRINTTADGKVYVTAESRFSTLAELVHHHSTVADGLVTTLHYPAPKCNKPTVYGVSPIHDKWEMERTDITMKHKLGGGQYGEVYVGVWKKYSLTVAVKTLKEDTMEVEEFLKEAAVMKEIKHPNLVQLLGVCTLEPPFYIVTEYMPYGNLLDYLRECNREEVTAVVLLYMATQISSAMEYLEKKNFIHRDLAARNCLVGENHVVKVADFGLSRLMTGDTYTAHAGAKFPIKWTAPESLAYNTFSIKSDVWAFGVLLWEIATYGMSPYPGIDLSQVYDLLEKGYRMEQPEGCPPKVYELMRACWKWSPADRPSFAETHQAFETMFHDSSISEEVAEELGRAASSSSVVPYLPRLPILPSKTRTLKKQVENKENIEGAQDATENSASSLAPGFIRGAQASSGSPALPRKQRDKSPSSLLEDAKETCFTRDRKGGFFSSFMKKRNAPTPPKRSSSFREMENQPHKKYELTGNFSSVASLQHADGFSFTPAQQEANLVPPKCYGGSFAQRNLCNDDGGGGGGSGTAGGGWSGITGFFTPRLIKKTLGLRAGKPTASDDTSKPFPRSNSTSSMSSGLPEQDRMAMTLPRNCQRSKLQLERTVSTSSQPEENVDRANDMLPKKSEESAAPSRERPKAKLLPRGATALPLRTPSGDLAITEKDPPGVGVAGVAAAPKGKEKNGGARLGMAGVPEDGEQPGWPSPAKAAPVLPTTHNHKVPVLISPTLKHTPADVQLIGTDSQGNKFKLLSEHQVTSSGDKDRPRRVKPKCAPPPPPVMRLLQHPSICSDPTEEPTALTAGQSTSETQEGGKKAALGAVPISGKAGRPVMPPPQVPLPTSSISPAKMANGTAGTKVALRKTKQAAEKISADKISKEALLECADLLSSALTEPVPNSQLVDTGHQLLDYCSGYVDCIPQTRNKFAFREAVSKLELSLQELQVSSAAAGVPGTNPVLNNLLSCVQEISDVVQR
# CDK9 CCNK (human) = CDK9 CCNK (human) (UniProt O75909+P50750)
# PRKCD (human) = PRKCD (human) (UniProt Q05655)
# CDK7 CCNH MNAT1 (human) = CDK7 CCNH MNAT1 (human) (UniProt P50613+P51948+P51946)
# MAP3K10 (human) = MAP3K10 (human) (UniProt Q02779)
# CDK9 CCNT1 (human) = CDK9 CCNT1 (human) (UniProt P50750+O60563)
# ACVRL1 (human) = ACVRL1 (human) (UniProt P37023)
# LIMK1 (human) = LIMK1 (human) (UniProt P53667)
# Chain of LIMK1 (human) (P53667 whole entry, looked up): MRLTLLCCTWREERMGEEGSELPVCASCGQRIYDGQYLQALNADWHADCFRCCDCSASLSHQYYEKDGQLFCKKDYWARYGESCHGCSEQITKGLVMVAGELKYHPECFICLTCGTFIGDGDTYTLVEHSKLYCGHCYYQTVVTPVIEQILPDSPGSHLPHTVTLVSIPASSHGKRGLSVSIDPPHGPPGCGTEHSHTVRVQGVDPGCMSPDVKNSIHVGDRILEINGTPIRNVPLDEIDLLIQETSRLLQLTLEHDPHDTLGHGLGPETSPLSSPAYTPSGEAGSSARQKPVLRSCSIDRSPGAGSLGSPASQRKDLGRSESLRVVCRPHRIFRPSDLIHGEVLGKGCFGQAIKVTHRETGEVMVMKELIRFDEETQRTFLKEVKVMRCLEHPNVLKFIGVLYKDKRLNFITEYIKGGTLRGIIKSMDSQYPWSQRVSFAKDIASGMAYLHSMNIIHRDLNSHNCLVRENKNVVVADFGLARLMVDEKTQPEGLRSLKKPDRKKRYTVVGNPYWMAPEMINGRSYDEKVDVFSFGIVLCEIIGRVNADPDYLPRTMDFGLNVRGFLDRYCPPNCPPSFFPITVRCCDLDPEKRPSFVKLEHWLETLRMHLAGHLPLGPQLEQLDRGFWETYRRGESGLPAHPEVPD
# [1] = target: TYK2 JH1 catalytic (human) (UniProt P29597)
# PBK (human) = PBK (human) (UniProt Q96KB5)
# DSTYK (human) = DSTYK (human) (UniProt Q6XUX3)
# NUAK1 (human) = NUAK1 (human) (UniProt O60285)
# PRKCE (human) = PRKCE (human) (UniProt Q02156)
# Chain of GRK5 (human) (P34947 whole entry, looked up): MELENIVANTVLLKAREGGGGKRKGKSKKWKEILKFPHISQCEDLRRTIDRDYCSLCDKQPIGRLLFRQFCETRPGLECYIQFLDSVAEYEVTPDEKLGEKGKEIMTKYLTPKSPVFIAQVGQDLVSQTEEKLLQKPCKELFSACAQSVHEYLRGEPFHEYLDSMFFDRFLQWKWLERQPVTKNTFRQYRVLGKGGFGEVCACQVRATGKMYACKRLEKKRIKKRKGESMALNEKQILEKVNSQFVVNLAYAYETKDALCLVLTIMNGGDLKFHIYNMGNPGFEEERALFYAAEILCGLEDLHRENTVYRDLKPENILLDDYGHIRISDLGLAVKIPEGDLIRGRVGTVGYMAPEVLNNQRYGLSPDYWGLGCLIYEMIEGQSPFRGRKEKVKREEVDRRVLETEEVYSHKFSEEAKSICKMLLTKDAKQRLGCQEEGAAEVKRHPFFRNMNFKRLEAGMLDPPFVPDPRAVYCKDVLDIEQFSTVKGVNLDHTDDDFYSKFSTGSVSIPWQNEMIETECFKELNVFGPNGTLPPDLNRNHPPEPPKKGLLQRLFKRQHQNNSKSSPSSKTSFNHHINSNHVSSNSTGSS
# Chain of PAK2 (human) (Q13177 whole entry, looked up): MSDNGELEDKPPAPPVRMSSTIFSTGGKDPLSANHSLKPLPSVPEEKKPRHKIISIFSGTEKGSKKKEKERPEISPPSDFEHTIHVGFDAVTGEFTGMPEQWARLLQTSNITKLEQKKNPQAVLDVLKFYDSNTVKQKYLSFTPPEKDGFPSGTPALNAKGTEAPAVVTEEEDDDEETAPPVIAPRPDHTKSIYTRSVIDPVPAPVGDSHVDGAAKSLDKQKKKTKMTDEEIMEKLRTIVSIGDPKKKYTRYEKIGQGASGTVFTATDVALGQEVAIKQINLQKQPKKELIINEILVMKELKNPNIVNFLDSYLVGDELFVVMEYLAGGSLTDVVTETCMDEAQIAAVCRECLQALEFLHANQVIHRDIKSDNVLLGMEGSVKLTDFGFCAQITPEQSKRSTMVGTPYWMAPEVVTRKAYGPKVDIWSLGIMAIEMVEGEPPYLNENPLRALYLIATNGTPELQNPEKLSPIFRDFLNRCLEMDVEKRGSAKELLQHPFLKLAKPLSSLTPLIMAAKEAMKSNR
smiles,measurement,setting,value
c1ccc(-c2n[nH]cc2-c2ccnc3ccccc23)nc1,residual activity,GSK3B (human),95.2%
same,residual activity,PAK1 (human),96.3%
same,residual activity,PAK2 (human),57%
same,residual activity,GRK5 (human),109%
same,residual activity,EPHA6 (human),98.8%
same,residual activity,MAP2K1 (human),93.7%
same,residual activity,CDC42BPB (human),102%
same,residual activity,NTRK2 (human),112%
same,residual activity,PNCK (human),98.3%
same,residual activity,FLT3 (human),91.2%
same,residual activity,SRPK1 (human),98.4%
same,residual activity,PRKG2 (human),89.2%
same,residual activity,YES1 (human),93.3%
same,residual activity,PDPK1 (human),93.8%
same,residual activity,TGFBR2 (human),109%
same,residual activity,CAMK1D (human),100%
same,residual activity,DAPK2 (human),102%
same,residual activity,JAK2 JH1 JH2 (human),107%
same,residual activity,DYRK1B (human),102%
same,residual activity,JAK3 JH1 JH2 (human),92.7%
same,residual activity,MERTK (human),92.6%
same,residual activity,PLK3 (human),91.7%
same,residual activity,CSNK1G3 (human),96%
same,residual activity,FGFR4 (human),80.6%
same,residual activity,TAOK2 (human),96.8%
same,residual activity,MAPKAPK5 (human),95.6%
same,residual activity,MARK1 (human),79.2%
same,residual activity,DYRK4 (human),104%
same,residual activity,ABL2 (human),67.8%
same,residual activity,CDK9 CCNK (human),98.7%
same,residual activity,PRKCD (human),96.6%
same,residual activity,CDK7 CCNH MNAT1 (human),104%
same,residual activity,MAP3K10 (human),104%
same,residual activity,CDK9 CCNT1 (human),80%
same,residual activity,ACVRL1 (human),102%
same,residual activity,LIMK1 (human),103%
same,residual activity,[1],101%
same,residual activity,PBK (human),91.9%
same,residual activity,DSTYK (human),98.3%
same,residual activity,NUAK1 (human),95.5%
same,residual activity,PRKCE (human),101%
Nc1ccc2ncnc(NCCc3ccc(Oc4ccccc4)cc3)c2c1,residual activity,GSK3B (human),102%
same,residual activity,PAK1 (human),94.9%
same,residual activity,PAK2 (human),102%
same,residual activity,GRK5 (human),98%
same,residual activity,EPHA6 (human),92.8%
same,residual activity,MAP2K1 (human),107%
same,residual activity,CDC42BPB (human),105%
same,residual activity,NTRK2 (human),104%
same,residual activity,PNCK (human),98.5%
same,residual activity,FLT3 (human),103%
same,residual activity,SRPK1 (human),99.8%
same,residual activity,PRKG2 (human),105%
same,residual activity,YES1 (human),112%
same,residual activity,PDPK1 (human),105%
same,residual activity,TGFBR2 (human),110%
same,residual activity,CAMK1D (human),102%
same,residual activity,DAPK2 (human),80.4%
same,residual activity,JAK2 JH1 JH2 (human),103%
same,residual activity,DYRK1B (human),104%
same,residual activity,JAK3 JH1 JH2 (human),96.9%
same,residual activity,MERTK (human),102%
same,residual activity,PLK3 (human),98.7%
same,residual activity,CSNK1G3 (human),96.8%
same,residual activity,FGFR4 (human),104%
same,residual activity,TAOK2 (human),102%
same,residual activity,MAPKAPK5 (human),101%
same,residual activity,MARK1 (human),103%
same,residual activity,DYRK4 (human),93.7%
same,residual activity,ABL2 (human),102%
same,residual activity,CDK9 CCNK (human),104%
same,residual activity,PRKCD (human),97.6%
same,residual activity,CDK7 CCNH MNAT1 (human),99.3%
same,residual activity,MAP3K10 (human),91.9%
same,residual activity,CDK9 CCNT1 (human),101%
same,residual activity,ACVRL1 (human),93.5%
same,residual activity,LIMK1 (human),101%
same,residual activity,[1],99.9%
same,residual activity,PBK (human),98.2%
same,residual activity,DSTYK (human),101%
same,residual activity,NUAK1 (human),94.7%
same,residual activity,PRKCE (human),109%
CCCC(=O)Oc1ccc2[nH]c(C(=O)c3cc4ccccc4[nH]3)cc2c1,residual activity,GSK3B (human),94%
same,residual activity,PAK1 (human),95.8%
same,residual activity,PAK2 (human),102%
same,residual activity,GRK5 (human),100%
same,residual activity,EPHA6 (human),88%
same,residual activity,MAP2K1 (human),99.9%
same,residual activity,CDC42BPB (human),99.5%
same,residual activity,NTRK2 (human),89.8%
same,residual activity,PNCK (human),99.4%
same,residual activity,FLT3 (human),79.9%
same,residual activity,SRPK1 (human),105%
same,residual activity,PRKG2 (human),97.6%
same,residual activity,YES1 (human),84.4%
same,residual activity,PDPK1 (human),101%
same,residual activity,TGFBR2 (human),101%
same,residual activity,CAMK1D (human),103%
same,residual activity,DAPK2 (human),88.4%
same,residual activity,JAK2 JH1 JH2 (human),106%
same,residual activity,DYRK1B (human),103%
same,residual activity,JAK3 JH1 JH2 (human),95.6%
same,residual activity,MERTK (human),96.7%
same,residual activity,PLK3 (human),98.4%
same,residual activity,CSNK1G3 (human),82.7%
same,residual activity,FGFR4 (human),90.9%
same,residual activity,TAOK2 (human),110%
same,residual activity,MAPKAPK5 (human),101%
same,residual activity,MARK1 (human),96.4%
same,residual activity,DYRK4 (human),86%
same,residual activity,ABL2 (human),96.3%
same,residual activity,CDK9 CCNK (human),104%
same,residual activity,PRKCD (human),88.8%
same,residual activity,CDK7 CCNH MNAT1 (human),98.7%
same,residual activity,MAP3K10 (human),87.7%
same,residual activity,CDK9 CCNT1 (human),105%
same,residual activity,ACVRL1 (human),90.9%
same,residual activity,LIMK1 (human),93.9%
same,residual activity,[1],90.7%
same,residual activity,PBK (human),104%
same,residual activity,DSTYK (human),94.9%
same,residual activity,NUAK1 (human),94%
same,residual activity,PRKCE (human),91%
